Results as given in patent US20230404972A1, “INHIBITION OF CASPASE PATHWAY AS A TREATMENT FOR LYSOSOMAL STORAGE DISORDERS” (Lysosomal and Rare Disorders Research and Treatment Center, …, priority 2020, published 2023).

Assays:
IL-18 = IL-18 ELISA of PBMC cell culture supernatant; type: cell-based, human; conditions: PBMCs from LSD patients, 1 uM, 6 hr, relative to untreated PBMCs
Protocol: (§1) PBMCs are extracted from 3-5 ml peripheral blood using Ficoll-Paque (GE health care). 2-4 ml of whole blood is diluted 1:2 using Phosphate buffered saline (PBS) containing 2% fetal bovine serum (FBS) and overlayed onto Ficoll solution in 15 ml leucosep tube. The tubes are centrifuged at 2000 g for 10 minutes with no brakes. The layer containing PBMCs is transferred into a fresh 15 ml tube and washed with PBS+2% FBS. The cells are then resuspended in RPMI+10% FBS. The cells were then counted using heniocytometer and plated into 96 well plates and set at 37° C. incubator with 5% CO2. […]
(§2) Caspase-1, IL-1 beta and IL-18 were quantified as a measure of capase-1 activity. CCL18 and chitotriosidase were measured as to indicate macrophage activation and reflect clinical outcomes. ELISAs were performed as per manufacturer's protocols to quantify the following cytokines: 1) Caspase 1 (Therrnofisher Scientific, Waltham, MA, USA), 2) IL-1 beta, 3) IL-18 (Abcam, Cambridge, MA, USA), 4) CCL-18 cytokines-1 (Themofisher scientific, Waltham, MA, USA). […]
(§3) Caspase-1 mediated inflammasome cleaves pro-IL-1 beta and pro-IL-18 into active forms II-1 beta and IL-18 which are secreted from the cells. […] Relative decrease for each sample was calculated as relative to untreated PBMCs (FIG. 3A and 3B). […]

Chitotriosidase = Chitotriosidase assay (4-Methylumbelliferone chitotrioside substrate) of PBMC cell culture supernatant; type: cell-based, human; conditions: PBMCs from LSD patients, 1 μM, 6 hr, with vs without treatment
IL-1 beta = IL-1 beta ELISA of PBMC cell culture supernatant; type: cell-based, human; conditions: PBMCs from LSD patients, 1 uM, 6 hr, relative to untreated PBMCs
Protocol: as §1, §2, §3

CCL18 = CCL18 ELISA of PBMC cell culture supernatant; type: cell-based, human; conditions: PBMCs from LSD patients, 1 μM, 6 hr, with vs without treatment
Caspase 1 = target: T1, Caspase 1 (Homo sapiens, UniProt P29466); test: Caspase-Glo 1 inflammasome assay in PBMCs from LSD patients; type: cell-based; conditions: 1 μM, 6 hr, vs untreated PBMCs
T1 construct: Caspase 1 activity within the PBMCs; endogenous in cells; host or cells: primary PBMCs from LSD patients
T1 sequence (P29466 120-297 limits assumed): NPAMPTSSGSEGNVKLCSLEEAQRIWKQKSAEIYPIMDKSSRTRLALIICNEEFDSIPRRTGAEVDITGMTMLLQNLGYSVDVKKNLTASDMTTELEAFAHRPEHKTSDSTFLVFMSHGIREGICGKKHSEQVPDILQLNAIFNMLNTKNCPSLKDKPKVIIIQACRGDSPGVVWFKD
T1 sequence (P29466 317-404 limits assumed): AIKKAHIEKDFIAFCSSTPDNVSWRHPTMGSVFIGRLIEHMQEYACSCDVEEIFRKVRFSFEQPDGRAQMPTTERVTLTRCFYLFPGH
Protocol: PBMCs are extracted from 3-5 ml peripheral blood using Ficoll-Paque (GE health care). 2-4 ml of whole blood is diluted 1:2 using Phosphate buffered saline (PBS) containing 2% fetal bovine serum (FBS) and overlayed onto Ficoll solution in 15 ml leucosep tube. The tubes are centrifuged at 2000 g for 10 minutes with no brakes. The layer containing PBMCs is transferred into a fresh 15 ml tube and washed with PBS+2% FBS. The cells are then resuspended in RPMI+10% FBS. The cells were then counted using heniocytometer and plated into 96 well plates and set at 37° C. incubator with 5% CO2.
The pan-caspase inhibitor, Emricasan (Sigma-Aldrich, Inc., St. Louis, MO, USA), was added to the PBMCs in 96-well plates to a final concentration of 1 μM. After 6 hr of Emricasan treatment, the cells were divided into two groups and used for 1) measurement of Caspase 1 activity within the PBMCs using Caspase-Glo 1 inflammasome assay (Promega, Madison, WI, USA), and 2) the supernatant was collected after centrifuging at 3000 rpm for 5 min to perform ELISA assays for cytokines: IL-1 beta and IL-18 as well as macrophage activation markers: Chitotriosidase and CCL18. […]
as §3

- Caspase 1 activity within the PBMCs (Caspase 1): reduced
SMILES: C[C@H](NC(=O)C(=O)Nc1ccccc1C(C)(C)C)C(=O)N[C@@H](CC(=O)O)C(=O)COc1c(F)c(F)cc(F)c1F [Emricasan, (3S)-3-({N-[{[2-(2-Methyl-2-propanyl)phenyl]amino}(oxo)acetyl]alanyl}amino)-4-oxo-5-(2,3,5,6-tetrafluorophenoxy) pentanoic acid]
- secreted IL-18 in the cell culture supernatant (IL-18): significant decrease
- production of chitotriosidase (macrophage activation biomarker) in cell culture medium (Chitotriosidase): significant decrease
- secreted IL-1 beta in the cell culture supernatant (IL-1 beta): significant decrease
- production of CCL18 (macrophage activation biomarker) in cell culture medium (CCL18): significant decrease
